Assays:
[1] = test system: primary hippocampus neurons; test: Cell viability analysis (MTT assay); type: cell-based, mouse (C57BL/6J); conditions: Mus musculus, Neuron; primary hippocampus neurons treated on day 9, viability after 48 hours; read-out: IC50 dose, cell viability
Experimental: The method of culturing mouse primary hippocampus neurons follow from a modified method from the prior art (Seibenhener and Wooten, 2012), including: obtaining a 16-18 day old embryo from a C57BL/6J strain pregnant female mouse after euthanasia, obtaining hippocampus tissue of the embryo and digesting the tissue with 0.05% trypsin at 37° C. for 15 minutes, and seeding 3×10^4 cells per well in a 48-well plate coated with Poly-L-lysine (100 μg/mL); wherein the components of the medium includes: Neurobasal Medium® (Gibco™; ThermoFisher Scientific, USA) adding 2% of B-27® Additive (Gibco™; ThermoFisher), 0.5 mM of glutamine (Gibco™; ThermoFisher), 25 μM of glutamate (Sigma-Aldrich, USA), 20 unit/mL of penicillin/streptomycin solution (Gibco™; ThermoFisher Scientific, USA), 1 mM of 4-(2-hydroxyethyl)-1-piperazineethanesulfonic acid) (HEPES) (Sigma-Aldrich), and 1% of heat inactivated Donor Horse Serum (Gibco™; ThermoFisher). […]
(3-(4,5-Dimethylthiazol-2-yl)-2,5-diphenyltetrazolium bromide, MTT) (Sigma, USA) has an original color of yellow, which is able to carry out a reducing reaction by a succinate dehydrogenase of mitochondria within living cells that breaks the tetrazolium ring thereof so as to form formazan, which has a violet color. […] Finally, the cell viability may be analyzed by detecting the changes of violet color (O.D. 570) by a spectrophotometer. […]

Tau protein at Thr-205 = test: Western blot, Tau phosphorylation at Thr-205; type: in vivo, mice (C57BL/6J); conditions: Aβ25-35 mice, hippocampus
Experimental: (§1) Further, in some embodiments of the present invention, C57BL/6J strain male mice (12 week old) are used as a subject in need. After mice are allowed to adapt to the environment for 6 days, mice are anesthetized with Avertin (0.4 g/kg; purchased from Sigma). The mice are fixed on a stereotactic apparatus for operation, followed by injecting oligomeric Aβ25-35 (10 nM, 3 μL) into bilateral hippocampal CA1 (AP: […] relative to the bregma; ML: ±[…] relative to the midline; DV: […] relative to the skull) on day 7. MGCD0103 and equal volume of vehicle (saline) are intraperitoneal (i.p.) injected once a day from day 8, the day after said operation, for 29 days. On day 24, the Open Field Test is performed; on day 26, the EPM is performed; on day 28, the Y-maze is performed; on days 30 to 36, MWM is performed; and on day 37, mice are euthanized for pathological analysis.

activated microglia = test: Immunohistochemical staining, activated microglia in hippocampus; type: in vivo, mice (C57BL/6J); conditions: Aβ25-35 mice
Experimental: as §1
(§2) The inventor collects the brain tissue by perfusion followed by fixing and dehydrating, then, 30 μm frozen sections are obtained by a freezing microtome (CMS3050S, Leica). […] After that, avidin-biotin complex (ABC) is detected 1 hour after staining. […] After all sections have been stained, they are then fixed on a slide, dried, dehydrated, mounted, and photographed for quantity (performed by Image Pro Plus, Meida Cyberetics, USA).

[2] = test system: adrenergic neurons in locus coeruleus (LC); test: Immunohistochemical staining, adrenergic neurons (TH); type: in vivo, mice (C57BL/6J); conditions: saline-injected mice; Mean±SEM
Experimental: as §1
as §2, with “USA). […]” for “USA).”

[3] = test system: mice with oligomeric Aβ25-35 injected into bilateral hippocampal CA1; test: Y-Maze Activity Test; type: in vivo, mice (C57BL/6J); conditions: Aβ25-35 mice, high dose 0.5 mg/kg i.p. once a day
Experimental: as §1, with “On day 24, the Open Field Test is performed; on day 26, the EPM is performed; on day 28, the Y-maze is performed; on days 30 to 36, MWM is performed; and on day 37, mice are euthanized for pathological analysis.” left out
Y-Maze Activity Test is a test that takes advantage of the characteristic that mice tend to explore an unfamiliar environment, so that the short-term spatial memory of mice can be measured by means of a Y-maze module arranged with three arms (35 cm×5 cm×20 cm) formed of white acrylic. The mice are placed in the middle of the three arms of the Y-Maze, and the mice are allowed to freely and spontaneously explore for 8 minutes, wherein one count is recorded when four limbs of the mice completely enter any one of the three arms. […]

PSD95 = test: Western blot, PSD95; type: in vivo, mice (C57BL/6J); conditions: hippocampus
Experimental: as §1

inactivated GSK3β (pS9) = test: Western blot, inactivated GSK3β (pS9); type: in vivo, mice (C57BL/6J); conditions: Aβ25-35 mice, hippocampus
Experimental: as §1

[4] = test system: serotonergic neurons in Raphe nucleus; test: Immunohistochemical staining, serotonergic neurons (5HT); type: in vivo, mice (C57BL/6J); conditions: saline-injected mice; Mean±SEM
Experimental: as §1
as §2, with “USA). […]” for “USA).”

With `Nc1ccccc1NC(=O)c1ccc(CNc2nccc(-c3cccnc3)n2)cc1` [MGCD0103, N-(2-Aminophenyl)-4-[[(4-pyridin-3-ylpyrimidin-2-yl)amino]methyl] benzamide] the IC50 [1] was roughly 7 µM, the “phosphorylation expression of Tau protein at Thr-205” value (Tau protein at Thr-205) was “decreased” and the “numbers of activated microglia” value (activated microglia) was “significantly decrease”. The “TH, numbers of adrenergic neurons” value [2] was 44.58 ± 2.05, the “spontaneous alternation rate (short-term memory)” value [3] was “significantly increased” and the “expression of PSD95” value (PSD95) was “no significant difference”. For the same compound, the “expression of inactivated GSK3β (pS9)” value (inactivated GSK3β (pS9)) was “considerably increased” and the “5HT, numbers of serotonergic neurons” value [4] was 21.43 ± 1.32.

Source: patent US20180228801A1, “Method for Enhancing Learning Ability and Memory of Patients with Alzheimer's Disease using Mocetinostat” (National Taiwan Normal University, priority 2017, published 2018)
